Test results published in article PMC4308941 (Cough (London, England), 2014).

Columns and labels:
healthy volunteers [1] = experiment: Capsaicin cough challenge (cough sensitivity C2/C5); format: in vivo, human
Experimental: (§1) This was a repeated-dose, balanced, two-sequence, two-period, two-treatment, non-placebo controlled, randomized, crossover design study. Since this study examined two ACE-i agents with similar characteristics and was performed using an open design, blinding was not necessary. […] The administered doses were those used for treatment of hypertension and which would yield a similar percentage of responders.
(§2) Capsaicin and citric acid cough challenges were performed prior to and following each 7-day treatment period (Table 2). Cough sensitivity was assessed as the lowest capsaicin or citric acid concentrations causing at least 2 (C2) or 5 coughs (C5), provided that cough was still present following inhalation of the next tussigenic concentration. C2 and C5 values were converted to logC2 and logC5, respectively, for analysis. Concentrations of both capsaicin and citric acid were prepared according to standard procedures, nebulized by a jet nebulizer (DeVilbiss 646, DeVilbiss Health Care Inc., Somerset, PA) driven by compressed air (8 L/min), and inhaled for 1 min during normal tidal breathing. Volunteers undergoing cough challenges were specifically instructed not to attempt to suppress coughs and not to talk immediately after inhalation of the tussigenic agent. In addition, subjects were given the following instruction: “allow yourself to cough if you need to, and as much as you need to”. Subjects were also requested to note on a diary the occurrence of spontaneous cough during the two 7-day treatment periods, using a verbal scale.

healthy volunteers [2] = experiment: Citric acid cough challenge (cough sensitivity C2/C5); format: in vivo, human
Experimental: as §1, §2

healthy volunteers [3] = experiment: Spontaneous cough recordings (diary); format: in vivo, human; settings: for total distinct coughing episodes: during 7-day treatment, 40 volunteers; for volunteers who recorded at least 1 spontaneous coughing episode: out of 40, during 7-day treatment
Experimental: as §2
A p value <0.05 was considered statistically significant.

[4] = Plasma pharmacokinetics at steady state (day 7)
Experimental: (§3) Blood samples for the measurement of PK parameters and for BK determination were obtained at pre-dose and after drug administration for each of the two study periods (Table 2). […] Repeated pre-dose PK variables determination was performed in order to establish baseline variability.
Spontaneous cough occurring during the two treatment periods was only qualitatively assessed, as the prevalence was expected to be low or very low. AUCss,τ PK parameters were calculated from the individual concentration-time data by using the program WinNonlin software (Pharsight Corporation, Mountain View, CA, USA) and summarized by treatment by means of descriptive statistics, in order to determine mean and standard deviation values. Paired t-test was used to compare mean FeNO values recorded after administration of the test and the reference drug. Statistical analyses were performed by using GraphPad Prism, version 3.02 (GraphPad Software, Inc. La Jolla, CA); sample size and power calculations were performed by using a dedicated software (nQuery Advisor, release 2.0, Los Angeles, CA). A p value <0.05 was considered statistically significant.

healthy volunteers [5] = experiment: Airway inflammation by fractional exhaled nitric oxide (FeNO); format: in vivo, human
Source text: FeNO measurements were always performed before cough challenges using a standardized single-breath method with an electrochemical analyzer (HypAir FeNO system, Medisoft, Sorinnes, BE). Subjects were seated (with no nose clip), and exhaled to residual volume, inserted the mouthpiece, inhaled to total lung capacity, then exhaled for 10 seconds at a constant flow rate of 0.05 L/s ± 10%. The end-point of measurement was considered when a plateau of at least 4 seconds was observed. Exhalations were repeated after a 30-second period of relaxation until 3 independent FeNO values with ≤10% variation were obtained.

bradykinin (BK) = experiment: Bradykinin plasma levels; format: in vivo, human; settings: day 7 of treatment period, zofenopril 30 mg vs ramipril 10 mg
Experimental: as §3

healthy volunteers [6] = experiment: Adverse event and vital signs monitoring; format: in vivo, human
Experimental: as §1

plasma ACE activity = settings: at 24 h after single oral doses of 30 mg; cited from earlier work
[7] = cited from earlier work
prostaglandins = tested on: prostaglandins; set-up: method as in PMID 1850188; settings: in-vivo study, compared with other ACE-i; cited from earlier work
guinea pigs = settings: cited from earlier work
rabbits = settings: cited from earlier work
[8] = single dose, cited from earlier work
[9] = tested on: normotensive volunteers / hypertensive patients; set-up: method as in PMID 11116103; settings: cited from earlier work
ACE = settings: compared with complexes of other ACE inhibitors; cited from earlier work

Structure (SMILES): C[C@H](CSC(=O)c1ccccc1)C(=O)N1C[C@@H](Sc2ccccc2)C[C@H]1C(=O)O [zofenopril]
- capsaicin LogC2 (concentration causing at least 2 coughs), mean ± SD (healthy volunteers [1]; after 7-day treatment (zofenopril 30 mg/day, ramipril 10 mg/day), 40 volunteers, controls 0.81 ± 0.42 (zofenopril), 0.78 ± 0.41 (ramipril)): 0.75 ± 0.40 μM
- capsaicin LogC5 (concentration causing at least 5 coughs), mean ± SD (healthy volunteers [1]; after 7-day treatment, 40 volunteers, controls 1.4 ± 0.72 (zofenopril), 1.3 ± 0.63 (ramipril)): 1.3 ± 0.68 μM
- citric acid LogC2, mean ± SD (healthy volunteers [2]; after 7-day treatment, 40 volunteers, controls 1.85 ± 1.24 (zofenopril), 1.80 ± 1.28 (ramipril)): 1.81 ± 1.27 mM
- citric acid LogC5, mean ± SD (healthy volunteers [2]; after 7-day treatment, 40 volunteers, controls 2.69 ± 1.88 (zofenopril), 2.67 ± 2.01 (ramipril)): 2.51 ± 1.57 mM
- total distinct coughing episodes (healthy volunteers [3]): 36
- volunteers who recorded at least 1 spontaneous coughing episode (healthy volunteers [3]): 7
- Cmin (lowest plasma concentration in the τ period) ([4]; 24 h interval after administration on day 7): 0
- AUCss,τ, mean ± SD ([4]; 24 h interval after drug administration on day 7, zofenopril 30 mg/day or ramipril 10 mg/day oral): 84.25 ± 34.47 ng/ml x h
- FeNO, mean ± SD (healthy volunteers [5]; after 7-day treatment, controls 22 ± 12 (zofenopril), 24 ± 9.6 (ramipril)): 26 ± 12 PPB
- BK plasma levels after administration (bradykinin (BK)): No difference
- subjects reporting adverse events of mild intensity (healthy volunteers [6]; of 40 subjects, headache, vomit, backache, vertigo): 8
- suppression of plasma ACE activity (plasma ACE activity): 74.4%
- oral absorption ([7]; after oral administration): completely absorbed
- capability to stimulate the production of prostaglandins (prostaglandins): less than that of other ACE-i
- effect on citric-acid induced cough (guinea pigs): did not increase
- cough response induced by mechanical and chemical airway stimulation (rabbits): but not zofenopril, increased

Structure (SMILES): CCOC(=O)[C@H](CCc1ccccc1)N[C@@H](C)C(=O)N1[C@H](C(=O)O)C[C@@H]2CCC[C@@H]21 [ramipril]
- capsaicin LogC5 (concentration causing at least 5 coughs), mean ± SD (healthy volunteers [1]; human, in vivo, 7 days): 0.45 ± 0.38 μM
- citric acid LogC2, mean ± SD (healthy volunteers [2]; human, in vivo, 7 days): 1.48 ± 1.09 mM
- citric acid LogC5, mean ± SD (healthy volunteers [2]; human, in vivo, 7 days): 2.23 ± 1.04 mM
- total distinct coughing episodes (healthy volunteers [3]): 24
- volunteers who recorded at least 1 spontaneous coughing episode (healthy volunteers [3]): 9
- FeNO, mean ± SD (healthy volunteers [5]; in vivo): 33 ± 16 PPB
- BK plasma levels after administration (bradykinin (BK)): No difference
- subjects reporting adverse events of mild intensity (healthy volunteers [6]; human, in vivo, 7 days): 5
- time to peak antihypertensive effect ([8]; after oral administration): 3 to 6 h
- duration of antihypertensive effect ([8]; oral): 24 h
- augmentation of citric-acid induced cough (guinea pigs): 40-60%
- cough response induced by mechanical and chemical airway stimulation (rabbits): increased

Structure (SMILES): CCOC(=O)[C@H](CCc1ccccc1)N[C@@H](C)C(=O)N1CCC[C@H]1C(=O)O [enalapril]
- effect on FeNO in hypertensive patients [9]: did not show FeNO increase
- effect on FeNO in normotensive volunteers ([9]; within a few hours): capable of increasing FeNO

Structure (SMILES): C[C@H](N[C@@H](CCc1ccccc1)C(=O)O)C(=O)N1[C@H](C(=O)O)C[C@@H]2CCC[C@@H]21 [ramiprilat]
- time to peak plasma concentrations ([7]; after intake of ramipril): 2 to 4 h
- stability/dissociation of inhibitor-ACE complex (ACE): dissociates more slowly

Structure (SMILES): C[C@H](CS)C(=O)N1C[C@@H](Sc2ccccc2)C[C@H]1C(=O)O [zofenoprilat]
- time to peak blood levels ([7]; after oral administration of zofenopril): 1.5 h
